Consider 96 compounds from PubChem BioAssay AID1902 (Broad Institute, 2009).

Activity calls are given as the source filed them.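 The calls were made as follows: active = EC50 no more than a set limit of log units above the highest dose; inactive = the rest.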

The target in this experiment is S. pyogenes SKKanGAS, kanamycin survival, BacTiterGlo, 6 h. The experiment can be described thus: S. pyogenes SKKanGAS kanamycin growth inhibitors – SKKanGAS strain, luminescence, dose confirmation, streptokinase promoter inhibitor project, dose response (AID 1902).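 Also: lower survival reflects blocked streptokinase promoter driving kanamycin resistance gene.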
Take `Cc1ccccc1Oc1nc(-c2ccccn2)nc2ccccc12`: the EC50 was 4.19 µM. As for `Cc1ccc2c(c1)C(=O)CC1(CCC(C(C)(C)C)CC1)O2` (stereo unspecified), the EC50 was 3.01 µM.

Take `O=C(NCc1ccccc1)C(=O)Nc1nc(-c2ccccc2)cs1`: the EC50 is 5.23 µM. To `CCOC(=O)c1ccc(NC(=O)c2nc[nH]c2C(=O)NCCCCCNC(=O)OC(C)(C)C)cc1` belongs 2.83 µM. To `Cc1ccccc1NC(=O)NCCCCc1ccccc1` belongs > 15 µM (inactive). The figure for `CCOc1ccc(NC(=S)N=Nc2c(O)[nH]c3ccccc23)cc1` is 0.525 µM. Take `NNc1nc(Nc2ccccc2)nc(Nc2ccccc2)n1`: the EC50 is 4.04 µM. As for `CC(C(=O)NC1C(=O)N2C(C(=O)O)=C(CSc3nnnn3C)CSC12)n1cc(Cl)cn1` (stereo unspecified), the EC50 is 0.078 µM.

Take `CCCOc1ccc(C(=O)NNC(=S)NC(=O)c2cc(-c3ccc(Cl)cc3)nc3ccccc23)cc1`: the EC50 was < 0.06 µM.

`CCCOC(=O)c1ccc(Oc2c(-c3ccc(OCC)cc3O)n[nH]c2C)cc1`: the EC50 is 2.02 µM. To `Cc1ccc(Nc2nc3ccccc3[nH]2)nc1` belongs 1.28 µM; to `Cc1ccc(-n2sc3ccccc3c2=O)cc1`, 1.27 µM. To `COc1ccc(S(=O)(=O)N/N=C(/C)c2ccncc2)cc1` belongs > 15 µM (inactive). To `CSc1nsc2nc(=O)c(/C=C3\C=Nc4ccccc43)c(N)n12` belongs 3.57 µM; to `Cc1c(Cl)c([N+](=O)[O-])nn1Cc1ccc(C(=O)N/N=C\c2cc(Cl)ccc2O)o1`, 1.48 µM; to `CC(C)C(=O)NC(c1ccccc1)c1cc([N+](=O)[O-])c2cccnc2c1O` (stereo unspecified), 2.48 µM.

Take `C=C(C)COc1ccc(-c2n[nH]c(C)c2-c2ccc(Br)cc2)c(O)c1`: the EC50 is 2.21 µM. To `Cc1nn(Cc2ccc(C(=O)Nc3nc4c(C)cccc4s3)o2)c(C)c1Br` belongs 2.85 µM; to `c1ccc(-c2cc(-c3ccncc3)nc3ccc4ccccc4c23)cc1`, 2.21 µM. Regarding `Oc1ccc(/C=C/c2ccc3cccc(O)c3n2)cc1Br`, the EC50 is 1.04 µM. The figure for `CCCOc1cccc(-c2cc(C(=O)N/N=C/c3ccccn3)c3ccccc3n2)c1` is 1.87 µM.

As for `CC(C)NC(=O)NC(=O)CSc1nnc(COc2ccccc2F)n1C(C)C1CC2CCC1C2` (stereo unspecified), the EC50 is 6.58 µM.

With `COc1ccc(C(=O)CSc2nnc(CNC(=O)c3ccc(S(=O)(=O)N(C)C)cc3)o2)cc1`, the EC50 is > 15 µM (inactive).

For the compound `CCCCc1ccc(NC(=O)NCc2ccccn2)cc1`, the EC50 is > 15 µM (inactive).

Take `Cc1ccc(S(=O)(=O)N2c3ccccc3OCC2C(C)(C)C)cc1` (stereo unspecified): the EC50 was 2.59 µM. For the compound `Cc1cc(NC(=S)N(Cc2ccc(Cl)cc2)Cc2ccc(C(=O)O)cc2)ccc1Cl`, the EC50 was 6.93 µM. For the compound `O=C(N/N=C/c1ccccc1O)c1cccc2ccccc12`, the EC50 is 3.08 µM. The figure for `Cc1[nH]c(N=Nc2ccccc2)nc1N=Nc1ccccc1` is 2.8 µM; for `CC(C)(C)c1cc(NCc2ccccn2)n2ncc(-c3ccc(Cl)cc3)c2n1` it is 1.34 µM. The figure for `CCc1ccc(OCC(=O)NNC(=S)NC(=O)C2CCCCC2)c(Br)c1` is < 0.06 µM; for `CCN(CC)c1ccc(C(=O)OCc2cc(=O)oc3cc(O)ccc23)cc1` it is 15.3 µM; for `O=C(NNc1nc(-c2ccc(F)cc2)cs1)c1ccccc1` it is 2.17 µM. To `O=C1NC(=O)/C(=C/c2ccccc2Oc2ccc(Cl)cc2)S1` belongs 6.33 µM. On to `COc1ccc(-c2n[nH]c(C)c2-c2ccc(Cl)cc2)c(O)c1`, for which the EC50 is 6.52 µM. To `CCOC(=O)/C(=N\Nc1ccc(Cl)cc1)c1csc(Nc2ccccc2)n1` belongs 1.77 µM; to `O=C(COc1ccccc1)NNC(=S)NC(=O)c1ccc(Cl)cc1Cl`, 0.361 µM.

For `COc1ccc(C2CC(c3cccs3)=NN2C(=O)c2ccc(Br)o2)cc1` (stereo unspecified), the EC50 was 5.63 µM. To `CCOC(=O)c1c(-c2ccc(OC)cc2)csc1/N=C/C1=C(O)CCCC1=O` belongs 14.5 µM. To `Cc1nc2c(C(=O)NCc3ccc4c(c3)OCO4)cnn2c(C)c1Cc1ccc(F)cc1Cl` belongs 14.7 µM; to `Cc1cc(COC(=O)C2N3C(=O)[C@@H](NC(=O)COc4ccccc4)[C@H]3SC2(C)C)on1` (stereo partly specified), 0.119 µM; to `Oc1ccc(/C=N/N(Cc2ccccc2)c2ccccc2)cc1`, 6.16 µM. With `COc1cc(OC)cc(C(=O)Nc2nc3ccccc3[nH]2)c1`, the EC50 is 12.8 µM. The figure for `O=C1C=C(Nc2ccccc2O)c2ccccc2C1=O` is 3.08 µM; for `Cc1ccccc1NC1=C/C(=N\S(=O)(=O)c2ccc(C(=O)O)cc2)c2ccccc2C1=O` it is 1.9 µM; for `O=c1[nH]c(NNC(=S)NCc2ccccc2)nc2c1C1(CCCCC1)Cc1ccccc1-2` it is 1.33 µM. The figure for `CC1=NN(/C(=N\c2nnc(C)s2)Nc2ccc(C(C)(C)C)cc2)[C@H](c2ccc(C)cc2)S1` is 7.14 µM.

For `CCc1c(O)nc(SCC(=O)Nc2nc3ccccc3s2)n(C2CCCCC2)c1=O`, the EC50 is 8.89 µM. The figure for `O=[N+]([O-])c1ccc(O)c(N=Cc2sc3ccccc3c2O)c1` is 2.97 µM. The figure for `Cc1ccc(-c2cc(C(=O)N3CCN(c4ccccc4O)CC3)c3ccccc3n2)cc1` is 8.84 µM; for `Cc1cccc(NC(=O)c2sc(Cl)nc2-c2ccccc2)c1` it is 11.2 µM.

For the compound `CC(C)Nc1cc(C(C)(C)C)nc2c(-c3ccccc3)cnn12`, the EC50 is 4.42 µM.

Regarding `FC(F)(F)c1cccc(NC(=S)Nc2ccc(Cl)c(Cl)c2)c1`, the EC50 was 2.45 µM.

`Cc1ccc(Cl)cc1N1CCN(C(=O)c2cn(C)c(=O)c3c2c2ccccc2n3C)CC1`: the EC50 is 4.92 µM. The figure for `COc1ccc(-c2oc3ccc(N4CCOCC4)cc3c2C#CC2(O)CCCCC2)cc1` is 2.11 µM; for `CCCCCCCCCCCCN1C(=O)CSC1c1cccnc1` (stereo unspecified) it is 5.91 µM; for `Cc1ccc(NC(=S)NNC(=S)Nc2cccc(C(F)(F)F)c2)cc1` it is 2.04 µM. With `CCCc1nnc(NC(=O)c2c(O)c3cccc4c3n(c2=O)CCC4)s1`, the EC50 was 6.91 µM.

Regarding `Cc1cc(C(=O)Nc2nc(-c3ccccn3)cs2)ccc1[N+](=O)[O-]`, the EC50 was 1.69 µM.

In the case of `Cc1cccc(C(=O)OCC(=O)Nc2nnc(-c3ccccc3)o2)c1O`, the EC50 was 2.2 µM. To `CCCCC(=O)O[C@H]1CC[C@H]2[C@@H]3CCc4cc(O)ccc4[C@H]3CC[C@]12C` belongs 3.83 µM.

With `CCCOc1ccc(Cc2c(Cl)nc(SC)nc2N(C)C)cc1`, the EC50 was 3.46 µM. The figure for `C[n+]1c(-c2ccccc2)c2cc(N)ccc2c2ccc(N)cc21` is 1.54 µM; for `O=C(CSc1nnc(CNC(=O)c2c(F)cccc2F)o1)NCc1ccccc1` it is > 15 µM (inactive); for `COc1ccc(C(=O)NC(=S)Nc2ccc(N3CCOCC3)c(Cl)c2)cc1[N+](=O)[O-]` it is 1.97 µM. Consider `COc1cc(OC)cc(C(=O)NC(=S)N2CCN(c3ccc(C(F)(F)F)cc3[N+](=O)[O-])CC2)c1`, for which the EC50 was 1.28 µM. To `Cc1ccc(C(=O)NNC(=S)NC(=O)c2ccc(Cl)cc2Cl)cc1` belongs 0.09 µM.

As for `FC(F)(F)c1cccc(CNC2c3ccccc3-c3ccccc32)c1`, the EC50 was 6.57 µM. To `Oc1c(CN2CCN(c3ccccn3)CC2)cc(Cl)c2cccnc12` belongs 5.58 µM; to `O=c1cc(-c2ccccc2)nc2c(-c3ccccc3)c(C(F)(F)F)[nH]n12`, 3.23 µM; to `COc1cccc(-c2cc(C(F)(F)F)nc(N3CCC(C)CC3)n2)c1`, 7.06 µM. The figure for `COc1ccc(-c2nn(-c3ccccc3)cc2/C=C2/SC(=S)N(CCC(=O)O)C2=O)cc1` is 1.83 µM; for `CC(C)COC(=O)c1cccc2c1-c1ccccc1/C2=N\O` it is 4.99 µM; for `COc1ccc(CCNC(=O)c2ccc(CNS(=O)(=O)c3ccc(C(C)(C)C)cc3)cc2)cc1OC` it is 7 µM.

`Cc1ccc(C(=O)N2CCCC(CCC(=O)NCc3ccccc3F)C2)cn1` (stereo unspecified): the EC50 was > 15 µM (inactive).

Consider `Nc1nonc1-c1nc2ccccc2n1CC(=O)N/N=C/c1ccc(-c2cccc(C(=O)O)c2)o1`, for which the EC50 was 3.02 µM. The figure for `c1ccc(-c2nc(N3CCCCCC3)nc(-n3ccnc3)n2)cc1` is 2.41 µM. As to `COc1ccc(-c2nn(-c3ccccc3)cc2/C=C/C(=O)N2CCN(c3ccccn3)CC2)cc1`, the EC50 is 4.69 µM. To `CCOc1ccccc1NC(=O)c1nc(S(=O)(=O)Cc2ccccc2)ncc1Cl` belongs 8.85 µM; to `C=C[C@]1(C)C[C@@H](OC(=O)CSCCN(CC)CC)[C@]2(C)C(C)CC[C@]3(CCC(=O)[C@H]32)[C@@H](C)[C@@H]1O` (stereo partly specified), < 0.06 µM; to `CC12CCC(CC1)C(C)(C)O2`, > 15 µM (inactive). The figure for `NCCS(=O)(=O)NC1CCCCC1` is > 15 µM (inactive); for `CCCC(=O)NC(c1ccc(Cl)cc1)c1ccc2cccnc2c1O` (stereo unspecified) it is 7.2 µM; for `Cc1ccc(NC(=S)c2nc3ccccc3[nH]2)c(C)c1` it is 1.74 µM. To `Cc1ccc(-c2cc(-c3ccccc3Cl)[nH]n2)c(O)c1` belongs 2.19 µM.

As to `CCCCCCN1N=C(C)C(C(=O)c2ccc(Cl)cc2)C1=O` (stereo unspecified), the EC50 is 1.51 µM. To `Oc1ccccc1/C=N/NC(=S)NC1CC2C=CC1C2` (stereo unspecified) belongs 5.69 µM; to `O=C(Nc1scc(-c2ccc(Br)cc2)c1C(=O)O)c1ccccc1F`, 1.86 µM. The figure for `O=C(O)CCSc1ccc([N+](=O)[O-])cc1[N+](=O)[O-]` is > 15 µM (inactive); for `Cc1cccc2sc(NNC(=O)c3cc(-c4cccs4)nc4ccccc34)nc12` it is 1.05 µM; for `CCc1cccc2c(C(=O)COC(=O)/C=C/c3ccc(O)c(OC)c3)c[nH]c12` it is 7.63 µM. The figure for `C=CCn1c(N2C(=O)CC(Cc3ccccc3)C2=O)nc2ccccc21` (stereo unspecified) is 4.5 µM. Consider `CCOC(=O)c1cnc(-n2nc(C)cc2C)nc1NC(C)c1ccccc1` (stereo unspecified), for which the EC50 was 2.74 µM.

Take `Cc1oc(-c2ccccc2Cl)nc1Cn1cccc1C1=NC(c2ccccc2)CO1` (stereo unspecified): the EC50 was > 15 µM (inactive). To `CCc1c(C)c(C#N)c2[nH]c3ccccc3n2c1=S` belongs 14.1 µM; to `CCCCCCCCCCn1c2c(c(=N)c3c1CCC3)CCC2`, 9.26 µM; to `Cc1cc2oc(=O)cc(CN(C)Cc3ccccc3Cl)c2cc1C`, 4.2 µM.
